Measured values from US20240368121A1, “ESTROGEN RECEPTOR DEGRADERS, PHARMACEUTICAL COMPOSITIONS THEREOF, AND THEIR THERAPEUTIC APPLICATIONS” (BioTheryX, Inc., priority 2021, published 2024).
pIC50: −log10 of the molar value.

Key:
Format in all cases: cell-based
[1] = test system: T47D cells; assay: Cell viability assay ([…]-GLO, 6-day treatment); conditions: Homo sapiens, 144 h, 6 days, CTG, read-out: Inhibition of Cancerous Cells IC50 T47D
Procedure: (§1) A compound provided herein was evaluated for its anticancer activity in MCF7 and T47D cells. MCF7 and T47D cells were cultured at 37° C. in a humidified 5% C02 environment in MEM or RPMI, supplemented with 10% FBS with insulin, respectively. The cells were plated in 384-well microplates at a density of 1,000 cells per well in their respective maintenance media. The cells were treated with the compound by a 10-point dose response curve for 6 days, during which, the medium and compound were refreshed once. After the 6-day treatment, the cell viability was assessed using […]-GLO (CTG) reagent. Luminescence was measured with a microplate reader.

[2] = test system: MCF7 cells; assay: Cell viability assay ([…]-GLO, 6-day treatment); conditions: Homo sapiens, MCF7, 144 h; MCF-7 cells, 6 days, CTG; read-out: Inhibition of Cancerous Cells IC50 MCF-7
Procedure: as §1

[3] = target: T1, ERα (Homo sapiens, UniProt P03372); assay: Protein degradation assay: ERα in MCF-7 cells via western blot; conditions: 6 h; for ERα Protein Degradation 1 nM: 1 nM compound; for ERα Protein Degradation 10 nM: 10 nM compound; for ERα Protein Degradation 100 nM: 100 nM compound
T1 construct: degrading an ERα in MCF-7 cells via a western blot; endogenous in cells; host or cells: MCF-7
T1 sequence (P03372 1-595): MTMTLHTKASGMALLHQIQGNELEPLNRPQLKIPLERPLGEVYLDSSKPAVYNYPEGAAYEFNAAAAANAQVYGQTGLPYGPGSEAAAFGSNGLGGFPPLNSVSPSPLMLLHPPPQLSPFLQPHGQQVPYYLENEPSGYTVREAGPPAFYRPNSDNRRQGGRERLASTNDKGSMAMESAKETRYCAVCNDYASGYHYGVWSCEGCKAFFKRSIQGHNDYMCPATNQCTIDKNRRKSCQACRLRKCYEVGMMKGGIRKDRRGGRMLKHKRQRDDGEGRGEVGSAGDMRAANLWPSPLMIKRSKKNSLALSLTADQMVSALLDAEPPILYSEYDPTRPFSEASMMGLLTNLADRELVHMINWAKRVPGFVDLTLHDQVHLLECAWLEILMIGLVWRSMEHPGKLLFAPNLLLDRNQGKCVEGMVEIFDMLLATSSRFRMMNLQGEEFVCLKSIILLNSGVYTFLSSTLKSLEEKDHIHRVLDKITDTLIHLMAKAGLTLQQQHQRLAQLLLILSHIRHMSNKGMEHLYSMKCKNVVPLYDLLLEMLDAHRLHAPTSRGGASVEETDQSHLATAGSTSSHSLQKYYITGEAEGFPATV
Procedure: A compound provided herein was assessed for its activity in degrading an ERα in MCF-7 cells via a western blot. The MCF7 cells were cultured at 37° C. in a humidified 5% C02 environment in MEM supplemented with 10% FBS with insulin. The cells were seeded in 12-well plates at a density of 300,000 cells per well in maintenance media. Cells were treated with the compound at predetermined concentrations (e.g., 1 nM, 10 nM, 100 nM, and 1 μM) for 6 h. The cells were then washed in PBS and the whole cells were lysed in a cell lysis buffer and incubated for 15 minutes on ice. Cell debris was removed by high-speed centrifugation and the cleared whole cell lysates were prepared for further analysis by a western blot. The whole cell protein extracts were separated on SDS-polyacrylamide gels, transferred to nitrocellulose membranes, and probed with primary antibodies, including anti-ERα antibody and GAPDH antibody for loading control. The membranes were subsequently washed and probed with secondary antibodies for chemiluminescence, followed by imaging on a BIORAD CHEMIDOC Imaging System. The results are summarized in Table 2, where “A” represents a percentage degradation value of no less than 50%; “B” represents a percentage degradation value of less than 50% and no less than 25%; “C” represents a percentage degradation value of less than 25% and no less than 10%; and “D” represents a percentage degradation value of less than 10%.

Compound: O=C1CC[C@@H](N2Cc3cc(N4CCN(CC5CCN(c6ccc(C7c8ccc(O)cc8CC[C@@H]7c7ccccc7)cc6)CC5)CC4)ccc3C2=O)C(=O)N1 (stereo in doubt) [Compound A15, (R)-3-(5-(4-((1-(4-((1R,2S)-6-Hydroxy-2-phenyl-1,2,3,4-tetrahydronaphthalen-1-yl)phenyl)piperidin-4-yl)methyl)piperazin-1-yl)-1-oxoisoindolin-2-yl)piperidine-2,6-dione]
- pIC50 [1]: 9.02
- pIC50 [2]: 8.92
- ERα Protein Degradation 1 nM [3]: D (a percentage degradation value of less than 10%)
- ERα Protein Degradation 10 nM [3]: C (a percentage degradation value of less than 25% and no less than 10%)
- ERα Protein Degradation 100 nM [3]: D (a percentage degradation value of less than 10%)

Compound: O=C1CCC(N2Cc3cc(N4CCN(CC5CCN(c6ccc(C7c8ccc(O)cc8CC[C@@H]7c7ccccc7)cc6)CC5)CC4)ccc3C2=O)C(=O)N1 (stereo in doubt) [Compound A16, (S)-3-(5-(4-((1-(4-((1R,2S)-6-Hydroxy-2-phenyl-1,2,3,4-tetrahydronaphthalen-1-yl)phenyl)piperidin-4-yl)methyl)piperazin-1-yl)-1-oxoisoindolin-2-yl)piperidine-2,6-dione]
- pIC50 [1]: 9.66
- pIC50 [2]: 9.17
- ERα Protein Degradation 1 nM [3]: B (a percentage degradation value of less than 50% and no less than 25%)
- ERα Protein Degradation 10 nM [3]: A (a percentage degradation value of no less than 50%)
- ERα Protein Degradation 100 nM [3]: A (a percentage degradation value of no less than 50%)

Compound: O=C1CCC(N2Cc3c(cc(F)cc3C3CCN(CCCCOc4ccc([C@@H]5c6ccc(O)cc6CC[C@@H]5c5ccccc5)cc4)CC3)C2=O)C(=O)N1 (stereo partly drawn) [Compound A1, 3-(6-fluoro-4-(1-(4-(4-((1R,2S)-6-hydroxy-2-phenyl-1,2,3,4-tetrahydro-naphthalen-1-yl)phenoxy)butyl)piperidin-4-yl)-1-oxoisoindolin-2-yl)piperidine-2,6-dione]
- pIC50 [1]: 9.62
- pIC50 [2]: > 11.00
- ERα Protein Degradation 1 nM [3]: C (a percentage degradation value of less than 25% and no less than 10%)
- ERα Protein Degradation 10 nM [3]: C (a percentage degradation value of less than 25% and no less than 10%)
- ERα Protein Degradation 100 nM [3]: B (a percentage degradation value of less than 50% and no less than 25%)

Compound: Cn1nc(C2CCC(=O)NC2=O)c2cccc(OCC(=O)N3CCN(CCCCOc4ccc(CC5(C)C(c6ccc(O)cc6)=Nc6ccc(O)cc65)cc4)CC3)c21 (stereo not shown) [Compound D4, 3-(7-(2-(4-(4-(4-((5-hydroxy-2-(4-hydroxyphenyl)-3-methyl-3H-indol-3-yl)-methyl)phenoxy)butyl)piperazin-1-yl)-2-oxoethoxy)-1-methyl-1H-indazol-3-yl)piperidine-2,6-dione]
- pIC50 [1]: 7.08
- ERα Protein Degradation 1 nM [3]: D (a percentage degradation value of less than 10%)
- ERα Protein Degradation 10 nM [3]: D (a percentage degradation value of less than 10%)
- ERα Protein Degradation 100 nM [3]: C (a percentage degradation value of less than 25% and no less than 10%)

Compound: Cc1c(-c2ccc(O)cc2)n(Cc2ccc(OCCCCN3CCN(C(=O)COc4cccc5c(N6CCC(=O)NC6=O)nn(C)c45)CC3)cc2)c2ccc(O)cc12 [Compound D23, 1-(7-(2-(4-(4-(4-((5-hydroxy-2-(4-hydroxyphenyl)-3-methyl-1H-indol-1-yl)-methyl)phenoxy)butyl)piperazin-1-yl)-2-oxoethoxy)-1-methyl-1H-indazol-3-yl)dihydro-pyrimidine-2,4(1H,3H)-dione]
- pIC50 [2]: 8.77
- ERα Protein Degradation 1 nM [3]: C (a percentage degradation value of less than 25% and no less than 10%)
- ERα Protein Degradation 10 nM [3]: C (a percentage degradation value of less than 25% and no less than 10%)
- ERα Protein Degradation 100 nM [3]: D (a percentage degradation value of less than 10%)

Compound: Cc1c(-c2ccc(O)cc2)n(Cc2ccc(OCCCCN3CCN(c4cc5c(s4)CN(C4CCC(=O)NC4=O)C5=O)CC3)cc2)c2ccc(O)cc12 (stereo not shown) [Compound E6, 3-(2-(4-(4-(4-((5-Hydroxy-2-(4-hydroxyphenyl)-3-methyl-1H-indol-1-yl)methyl)-phenoxy)butyl)piperazin-1-yl)-4-oxo-4,6-dihydro-5H-thieno[2,3-c]pyrrol-5-yl)piperidine-2,6-dione]
- pIC50 [2]: 9.66
- ERα Protein Degradation 1 nM [3]: D (a percentage degradation value of less than 10%)
- ERα Protein Degradation 10 nM [3]: D (a percentage degradation value of less than 10%)
- ERα Protein Degradation 100 nM [3]: D (a percentage degradation value of less than 10%)

Compound: Cc1c(-c2ccc(O)cc2)n(Cc2ccc(OCCCCN3CCN(C(=O)COc4ccc5c(C6CCC(=O)NC6=O)nn(C)c5c4)CC3)cc2)c2ccc(O)cc12 (stereo not shown) [Compound E14, 3-(6-(2-(4-(4-(4-((5-Hydroxy-2-(4-hydroxyphenyl)-3-methyl-1H-indol-1-yl)-methyl)phenoxy)butyl)piperazin-1-yl)-2-oxoethoxy)-1-methyl-1H-indazol-3-yl)piperidine-2,6-dione]
- pIC50 [2]: 9.48
- ERα Protein Degradation 1 nM [3]: B (a percentage degradation value of less than 50% and no less than 25%)
- ERα Protein Degradation 10 nM [3]: B (a percentage degradation value of less than 50% and no less than 25%)
- ERα Protein Degradation 100 nM [3]: D (a percentage degradation value of less than 10%)

Compound: Cc1c(-c2ccc(O)cc2)n(Cc2ccc(OCCCCN3CCN(C(=O)COc4ccc(C5CCC(=O)NC5=O)cc4)CC3)cc2)c2ccc(O)cc12 (stereo not shown) [Compound E24, 3-(4-(2-(4-(4-(4-((5-hydroxy-2-(4-hydroxyphenyl)-3-methyl-1H-indol-1-yl)-methyl)phenoxy)butyl)piperazin-1-yl)-2-oxoethoxy)phenyl)piperidine-2,6-dione]
- pIC50 [2]: 8.77
- ERα Protein Degradation 1 nM [3]: D (a percentage degradation value of less than 10%)
- ERα Protein Degradation 10 nM [3]: D (a percentage degradation value of less than 10%)
- ERα Protein Degradation 100 nM [3]: D (a percentage degradation value of less than 10%)

Compound: Cc1c(-c2ccc(O)cc2)n(Cc2ccc(OCCCCN3CCN(C(=O)COc4cccc(C5CCC(=O)NC5=O)c4)CC3)cc2)c2ccc(O)cc12 (stereo not shown) [Compound E25, 3-(3-(2-(4-(4-(4-((5-Hydroxy-2-(4-hydroxyphenyl)-3-methyl-1H-indol-1-yl)-methyl)phenoxy)butyl)piperazin-1-yl)-2-oxoethoxy)phenyl)piperidine-2,6-dione]
- pIC50 [2]: 8.30
- ERα Protein Degradation 1 nM [3]: D (a percentage degradation value of less than 10%)
- ERα Protein Degradation 10 nM [3]: D (a percentage degradation value of less than 10%)
- ERα Protein Degradation 100 nM [3]: D (a percentage degradation value of less than 10%)

Compound: Cc1c(-c2ccc(O)cc2)n(Cc2ccc(OCCCCN3CCN(C(=O)COc4cccc(N5CCC(=O)NC5=O)c4)CC3)cc2)c2ccc(O)cc12 [Compound E26, 1-(3-(2-(4-(4-(4-((5-Hydroxy-2-(4-hydroxyphenyl)-3-methyl-1H-indol-1-yl)-methyl)phenoxy)butyl)piperazin-1-yl)-2-oxoethoxy)phenyl)dihydropyrimidine-2,4(1H,3H)-dione]
- pIC50 [2]: 8.42
- ERα Protein Degradation 1 nM [3]: D (a percentage degradation value of less than 10%)
- ERα Protein Degradation 10 nM [3]: D (a percentage degradation value of less than 10%)
- ERα Protein Degradation 100 nM [3]: D (a percentage degradation value of less than 10%)
